From PubChem BioAssay (NCI)
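Method: 48-hour compound exposure of cells in 96-well plates, five concentrations, linear interpolation of endpoints. GI50 is the concentration that inhibits growth by half. Definition used: TGI = concentration required for complete inhibition of growth.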

Legend:
Assay in all cases: NCI anticancer screen, dose series, 48 h
RXF 393 renal = tested on: RXF 393 renal
UO-31 renal = tested on: UO-31 renal
HCT-116 colon = tested on: HCT-116 colon
HOP-62 NSCLC = tested on: HOP-62 NSCLC
RPMI-8226 leukemia = tested on: RPMI-8226 leukemia
NCI-H460 lung = tested on: NCI-H460 lung
MDA-MB-231 breast = tested on: MDA-MB-231 breast
BT-549 breast = tested on: BT-549 breast
TK-10 renal = tested on: TK-10 renal
SR leukemia = tested on: SR leukemia
LOX IMVI melanoma = tested on: LOX IMVI melanoma
UACC-257 melanoma = tested on: UACC-257 melanoma
MALME-3M melanoma = tested on: MALME-3M melanoma
SF-539 CNS = tested on: SF-539 CNS
A549 NSCLC = tested on: A549 NSCLC
HL-60(TB) leukemia = tested on: HL-60(TB) leukemia
OVCAR-5 ovarian = tested on: OVCAR-5 ovarian
U251 CNS = tested on: U251 CNS
SK-OV-3 ovarian = tested on: SK-OV-3 ovarian
SN12C renal = tested on: SN12C renal
SK-MEL-2 melanoma = tested on: SK-MEL-2 melanoma
NCI-H226 lung = tested on: NCI-H226 lung
UACC-62 melanoma = tested on: UACC-62 melanoma
PC-3 prostate = tested on: PC-3 prostate
A498 renal = tested on: A498 renal
OVCAR-4 ovarian = tested on: OVCAR-4 ovarian
SF-295 CNS = tested on: SF-295 CNS
SK-MEL-5 melanoma = tested on: SK-MEL-5 melanoma
NCI-H23 lung = tested on: NCI-H23 lung
SF-268 CNS = tested on: SF-268 CNS
SNB-75 CNS = tested on: SNB-75 CNS
CCRF-CEM leukemia = tested on: CCRF-CEM leukemia
COLO 205 colon = tested on: COLO 205 colon
DU-145 prostate = tested on: DU-145 prostate
SNB-19 CNS = tested on: SNB-19 CNS
HS 578T breast = tested on: HS 578T breast
T-47D breast = tested on: T-47D breast

O=C(Nc1ccc(Br)cc1)Nc1nc2ccc([N+](=O)[O-])cc2s1
GI50 (RXF 393 renal): 862 nM
TGI (RXF 393 renal): 2410 nM
GI50 (UO-31 renal): 1490 nM
TGI (UO-31 renal): 4740 nM
GI50 (HCT-116 colon): 875 nM
TGI (HCT-116 colon): 2370 nM
GI50 (HOP-62 NSCLC): 1880 nM
TGI (HOP-62 NSCLC): 5040 nM
GI50 (RPMI-8226 leukemia): 425 nM
TGI (RPMI-8226 leukemia): 1700 nM
GI50 (NCI-H460 lung): 1280 nM
TGI (NCI-H460 lung): 3080 nM
GI50 (MDA-MB-231 breast): 1470 nM
TGI (MDA-MB-231 breast): 3500 nM
GI50 (BT-549 breast): 1520 nM
TGI (BT-549 breast): 3270 nM
GI50 (TK-10 renal): 1890 nM
TGI (TK-10 renal): 4750 nM
GI50 (SR leukemia): 474 nM
TGI (SR leukemia): 2280 nM
GI50 (LOX IMVI melanoma): 1340 nM
TGI (LOX IMVI melanoma): 2670 nM
GI50 (UACC-257 melanoma): 1430 nM
TGI (UACC-257 melanoma): 4110 nM
GI50 (MALME-3M melanoma): 792 nM
TGI (MALME-3M melanoma): 3490 nM
GI50 (SF-539 CNS): 1310 nM
TGI (SF-539 CNS): 3080 nM
GI50 (A549 NSCLC): 1860 nM
TGI (A549 NSCLC): 6900 nM
GI50 (HL-60(TB) leukemia): 1020 nM
TGI (HL-60(TB) leukemia): 2750 nM
GI50 (OVCAR-5 ovarian): 2080 nM
TGI (OVCAR-5 ovarian): 5070 nM
GI50 (U251 CNS): 1200 nM
TGI (U251 CNS): 4260 nM
GI50 (SK-OV-3 ovarian): 1590 nM
TGI (SK-OV-3 ovarian): 6750 nM
GI50 (SN12C renal): 1530 nM
TGI (SN12C renal): 4650 nM
GI50 (SK-MEL-2 melanoma): 1260 nM
TGI (SK-MEL-2 melanoma): 3000 nM
GI50 (NCI-H226 lung): 1440 nM
TGI (NCI-H226 lung): 3090 nM
GI50 (UACC-62 melanoma): 1070 nM
TGI (UACC-62 melanoma): 3600 nM
GI50 (PC-3 prostate): 542 nM
TGI (PC-3 prostate): 2080 nM
GI50 (A498 renal): 192 nM
TGI (A498 renal): 785 nM
GI50 (OVCAR-4 ovarian): 1130 nM
TGI (OVCAR-4 ovarian): 3820 nM
GI50 (SF-295 CNS): 1270 nM
TGI (SF-295 CNS): 2950 nM
GI50 (SK-MEL-5 melanoma): 696 nM
TGI (SK-MEL-5 melanoma): 2030 nM
GI50 (NCI-H23 lung): 926 nM
TGI (NCI-H23 lung): 2500 nM
GI50 (SF-268 CNS): 1690 nM
TGI (SF-268 CNS): 5440 nM
GI50 (SNB-75 CNS): 1070 nM
TGI (SNB-75 CNS): 3000 nM
GI50 (CCRF-CEM leukemia): 377 nM
TGI (CCRF-CEM leukemia): 2740 nM
GI50 (COLO 205 colon): 1640 nM
TGI (COLO 205 colon): 3150 nM
GI50 (DU-145 prostate): 1730 nM
TGI (DU-145 prostate): 4680 nM
GI50 (SNB-19 CNS): 1180 nM
TGI (SNB-19 CNS): 4070 nM
GI50 (HS 578T breast): 1470 nM
TGI (HS 578T breast): 3990 nM
GI50 (T-47D breast): 573 nM
TGI (T-47D breast): 3380 nM
